Our source for the inhibition and IC50 values is US10519134B2, “Pyrazole compounds and methods of making and using same” (Lundbeck La Jolla Research Center, Inc., priority 2015, dated 2019).

Broadly, the pIC50 is the negative decadic logarithm of the IC50, by convention in mol/L. Higher therefore signals a low IC50.

Common to all, as to format: biochemical
One assay deals with T1, FAAH (Mus musculus, UniProt O08914).
T1 construct: Proteomes (mouse brain membrane fraction or cell lysates); from tissue; host or cells: mouse brain membrane fraction (or cell lysates)
T1 sequence (O08914 1-579): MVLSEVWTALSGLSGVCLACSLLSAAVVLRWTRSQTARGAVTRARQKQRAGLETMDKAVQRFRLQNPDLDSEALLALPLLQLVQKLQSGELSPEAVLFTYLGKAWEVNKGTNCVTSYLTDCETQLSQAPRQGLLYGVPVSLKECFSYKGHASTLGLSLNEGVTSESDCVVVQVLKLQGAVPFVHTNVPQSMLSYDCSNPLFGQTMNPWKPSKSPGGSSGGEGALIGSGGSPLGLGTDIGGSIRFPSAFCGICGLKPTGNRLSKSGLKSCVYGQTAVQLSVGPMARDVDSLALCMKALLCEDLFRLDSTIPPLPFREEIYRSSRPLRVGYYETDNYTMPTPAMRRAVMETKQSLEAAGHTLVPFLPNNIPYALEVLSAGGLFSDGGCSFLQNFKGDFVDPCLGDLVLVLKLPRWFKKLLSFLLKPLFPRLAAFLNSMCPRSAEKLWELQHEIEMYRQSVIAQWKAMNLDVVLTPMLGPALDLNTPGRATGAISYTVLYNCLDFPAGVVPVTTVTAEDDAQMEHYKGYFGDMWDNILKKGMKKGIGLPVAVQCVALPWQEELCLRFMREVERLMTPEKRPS
The assay is described as follows: In vitro competitive activity-based protein profiling (mouse), FAAH gel band. The settings on record: read-out: FAAH % inh. 1 μM. The gist of the method: (§1)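 Competitive ABPP: inhibitors at varying concentrations were given 30 min at 37 °C with mouse brain membranes or cell lysates (1.0 mg/mL total protein) before 30 min labelling by FP-Rh or HT-01 (stock 50 μM in DMSO). Residual hydrolase activity read as in-gel fluorescence of MAGL and FAAH bands.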

In assay [1] the target is T2, MAGL (Homo sapiens, UniProt Q99685).
T2 construct: Proteomes (human prefrontal cortex or cell membrane fractions); from tissue; host or cells: human prefrontal cortex (or cell membrane fractions)
T2 sequence (Q99685 1-303): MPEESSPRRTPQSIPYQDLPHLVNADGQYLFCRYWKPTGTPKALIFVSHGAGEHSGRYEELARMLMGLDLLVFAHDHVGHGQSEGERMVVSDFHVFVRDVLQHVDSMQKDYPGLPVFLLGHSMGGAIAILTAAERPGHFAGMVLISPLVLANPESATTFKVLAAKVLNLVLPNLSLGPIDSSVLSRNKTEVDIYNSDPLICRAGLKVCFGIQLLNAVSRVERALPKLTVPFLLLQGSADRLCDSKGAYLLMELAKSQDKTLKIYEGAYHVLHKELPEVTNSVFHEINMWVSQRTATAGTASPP
Description: In vitro competitive activity-based protein profiling (human), MAGL gel band. The procedure: In Vitro Competitive Activity-Based Protein Profiling (Human).
Proteomes (human prefrontal cortex or cell membrane fractions) (50 μL, 1.0-2.0 mg/mL total protein concentration) were preincubated with varying concentrations of inhibitors at 37° C. After 30 min, FP-Rh or JW912 (1.0 μL, 50 μM in DMSO) was added and the mixture was incubated for another 30 min at room temperature. Reactions were quenched with SDS loading buffer (15 μL—4×) and run on SDS-PAGE. Following gel imaging, serine hydrolase activity was determined by measuring fluorescent intensity of gel bands corresponding to MAGL using ImageJ 1.49k software.

In assay [2] the target is T3, MAGL (Mus musculus, UniProt O35678).
T3 construct: Proteomes (mouse brain membrane fraction or cell lysates); from tissue; host or cells: mouse brain membrane fraction (or cell lysates)
T3 sequence (O35678 1-303): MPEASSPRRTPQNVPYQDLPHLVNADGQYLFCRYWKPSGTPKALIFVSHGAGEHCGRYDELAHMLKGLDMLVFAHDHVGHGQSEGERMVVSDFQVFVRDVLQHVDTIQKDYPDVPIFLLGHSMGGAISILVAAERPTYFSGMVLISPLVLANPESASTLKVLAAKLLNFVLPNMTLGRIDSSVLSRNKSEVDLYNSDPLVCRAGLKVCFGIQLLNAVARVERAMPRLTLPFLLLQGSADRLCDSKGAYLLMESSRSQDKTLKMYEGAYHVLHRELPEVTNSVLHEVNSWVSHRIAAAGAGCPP
Description: In vitro competitive activity-based protein profiling (mouse), MAGL gel band. The following applies: read-out: MAGL % inh. 1 μM. The gist of the method: as §1

pIC50: −log10 of the molar value.

As to `CS(=O)(=O)Nc1ccn(C(=O)N2CCN(Cc3cc(N4CCCC4)ccc3Cl)CC2)n1` [Example 194, N-(1-(4-(2-chloro-5-(pyrrolidin-1-yl)benzyl)piperazine-1-carbonyl)-1H-pyrazol-3-yl) methanesulfonamide], the inhibition at 1 µM on FAAH is 0 to 25%; at MAGL [2] it was not below 75%. Besides, the negative logarithm of the IC50 (pIC50) on MAGL [1] was 6.00 to 7.00.
For `CS(=O)(=O)Nc1ccn(C(=O)N2CCN(Cc3ccc(C(F)(F)F)cc3N3CCC(F)CC3)CC2)n1` [Example 196, N-(1-(4-(2-(4-fluoropiperidin-1-yl)-4-(trifluoromethyl)benzyl)piperazine-1-carbonyl)-1H-pyrazol-3-yl) methanesulfonamide], in that order: 0 to 25%, not below 75% and not below 7.00.
For `CS(=O)(=O)Nc1ccn(C(=O)N2CCC3(CCCN3Cc3ccc(C(F)(F)F)cc3Cl)CC2)n1` [Example 197, N-(1-(1-(2-chloro-4-(trifluoromethyl)benzyl)-1,8-diazaspiro[4.5]decane-8-carbonyl)-1H-pyrazol-3-yl) methanesulfonamide], in that order: 0 to 25%, not below 75% and not below 7.00.
With `CS(=O)(=O)Nc1ccn(C(=O)N2CCC3(CCCN3Cc3cc(Cl)cc(C(F)(F)F)c3)CC2)n1` [Example 198, N-(1-(1-(3-chloro-5-(trifluoromethyl)benzyl)-1,8-diazaspiro[4.5]decane-8-carbonyl)-1H-pyrazol-3-yl) methanesulfonamide], the values for the inhibition at 1 µM at FAAH and at MAGL [2] were 25 to 50% and not below 75%, respectively. Besides, the negative-log IC50 (pIC50) at MAGL [1] is not below 7.00.
On to `CS(=O)(=O)Nc1ccn(C(=O)N2CCN(Cc3ccc(C(F)(F)F)cc3N3CC4COCC4C3)CC2)n1` (stereo not drawn) [Example 205, N-(1-(4-(2-(tetrahydro-1H-furo[3,4-c]pyrrol-5(3H)-yl)-4-(trifluoromethyl)benzyl)piperazine-1-carbonyl)-1H-pyrazol-3-yl) methanesulfonamide], for which the inhibition at 1 µM at FAAH was 0 to 25%; at MAGL [2], not below 75%. For the same compound, on MAGL [1], the pIC50 is not below 7.00.
For `CS(=O)(=O)Nc1ccn(C(=O)N2CCN(Cc3ccc(C(F)(F)F)cc3N3C4CCC3COC4)CC2)n1` [Example 206, N-(1-(4-(2-(3-oxa-8-azabicyclo[3.2.1]octan-8-yl)-4-(trifluoromethyl)benzyl)piperazine-1-carbonyl)-1H-pyrazol-3-yl) methanesulfonamide] the same measures were 0 to 25%, not below 75% and not below 7.00.
For `CS(=O)(=O)Nc1ccn(C(=O)N2CCN(Cc3ccc(C(F)(F)F)cc3N3C4CCC3CN(S(C)(=O)=O)C4)CC2)n1` [Example 208, N-(1-(4-(2-(3-(methylsulfonyl)-3,8-diazabicyclo[3.2.1]octan-8-yl)-4-(trifluoromethyl)benzyl)piperazine-1-carbonyl)-1H-pyrazol-3-yl) methanesulfonamide], in that order: 0 to 25%, not below 75% and not below 7.00.
For `CS(=O)(=O)Nc1ccn(C(=O)N2CCN(Cc3ccc(C(F)(F)F)cc3N3CCC(S(C)(=O)=O)CC3)CC2)n1` [Example 209, N-(1-(4-(2-(4-(methylsulfonyl)piperidin-1-yl)-4-(trifluoromethyl)benzyl)piperazine-1-carbonyl)-1H-pyrazol-3-yl) methanesulfonamide], in that order: 0 to 25%, not below 75% and not below 7.00.
For `C#Cc1ccc(CN2CCN(C(=O)n3ccc(NC(C)=O)n3)CC2)cc1` [Example 210, N-(1-(4-(4-ethynylbenzyl)piperazine-1-carbonyl)-1H-pyrazol-3-yl) acetamide], the inhibition at 1 µM was 0 to 25% on FAAH and not below 75% at MAGL [2]. At MAGL [1], this compound gave a negative logarithm of the IC50 (pIC50) not below 7.00.
For `CS(=O)(=O)Nc1ccn(C(=O)N2CCN(Cc3ccc(C(F)(F)F)cc3-c3nccs3)CC2)n1` [Example 211, N-(1-(4-(2-(thiazol-2-yl)-4-(trifluoromethyl)benzyl)piperazine-1-carbonyl)-1H-pyrazol-3-yl) methanesulfonamide] the same measures were 0 to 25%, not below 75% and not below 7.00.
Consider `CS(=O)(=O)Nc1ccn(C(=O)N2CCN(Cc3ccc(C(F)(F)F)cc3-c3ccc(C(F)(F)F)nc3)CC2)n1` [Example 212, N-(1-(4-(4-(trifluoromethyl)-2-(6-(trifluoromethyl)pyridin-3-yl)benzyl)piperazine-1-carbonyl)-1H-pyrazol-3-yl) methanesulfonamide], for which the inhibition at 1 µM is 0 to 25% at FAAH and not below 75% on MAGL [2]. On MAGL [1], the pIC50 was 6.00 to 7.00.
On to `CS(=O)(=O)Nc1ccn(C(=O)N2CCN(Cc3ccc(C(F)(F)F)cc3-c3ccn(CC(=O)O)n3)CC2)n1` [Example 213, 2-(3-(2-((4-(3-(methylsulfonamido)-1H-pyrazole-1-carbonyl)piperazin-1-yl)methyl)-5-(trifluoromethyl)phenyl)-1H-pyrazol-1-yl)acetic acid], for which the results for the inhibition at 1 µM at FAAH and at MAGL [2] were 0 to 25% and not below 75%, respectively. Also, on MAGL [1], the negative-log IC50 (pIC50) was 6.00 to 7.00.
For the compound `CC(=O)N1CC2CN(c3cc(CN4CCN(C(=O)n5ccc(NS(C)(=O)=O)n5)CC4)ccc3Cl)CC2C1` (stereo not drawn) [Example 215, N-(1-(4-(3-(5-acetylhexahydro-pyrrolo[3,4-c]pyrrol-2(1H)-yl)-4-chlorobenzyl)piperazine-1-carbonyl)-1H-pyrazol-3-yl) methanesulfonamide], the inhibition at 1 µM at FAAH is 0 to 25%; at MAGL [2] it was not below 75%. The same compound gave a pIC50 at MAGL [1] of 6.00 to 7.00.
For `CC(=O)N1CCC2(CC1)CCN(c1cc(CN3CCN(C(=O)n4ccc(NS(C)(=O)=O)n4)CC3)ccc1Cl)C2` [Example 216, N-(1-(4-(3-(8-acetyl-2,8-diazaspiro[4.5]decan-2-yl)-4-chlorobenzyl)piperazine-1-carbonyl)-1H-pyrazol-3-yl) methanesulfonamide] the same measures were 0 to 25%, not below 75% and 6.00 to 7.00.
With `CS(=O)(=O)Nc1ccn(C(=O)N2CCN(Cc3ccc(Cl)cc3N3CCC(F)CC3)CC2)n1` [Example 227, N-(1-(4-(4-chloro-2-(4-fluoropiperidin-1-yl)benzyl)piperazine-1-carbonyl)-1H-pyrazol-3-yl) methanesulfonamide], the inhibition at 1 µM on FAAH was 0 to 25%; on MAGL [2], not below 75%. For the same compound, at MAGL [1], the negative logarithm of the IC50 (pIC50) was not below 7.00.
For `CC(=O)N1CC2(CCN(c3cc(C(F)(F)F)ccc3CN3CCN(C(=O)n4ccc(NS(C)(=O)=O)n4)CC3)CC2)C1` [Example 228, N-(1-(4-(2-(2-acetyl-2,7-diazaspiro[3.5]nonan-7-yl)-4-(trifluoromethyl)benzyl)piperazine-1-carbonyl)-1H-pyrazol-3-yl) methanesulfonamide], in that order: 0 to 25%, not below 75% and not below 7.00.
For `CS(=O)(=O)Nc1ccn(C(=O)N2CCN(Cc3ccc(Cl)cc3N3CCC4(CC3)CN(S(C)(=O)=O)C4)CC2)n1` [Example 230, N-(1-(4-(4-chloro-2-(2-(methylsulfonyl)-2,7-diazaspiro[3.5]nonan-7-yl)benzyl)piperazine-1-carbonyl)-1H pyrazol-3-yl) methanesulfonamide] the same measures were 0 to 25%, not below 75% and not below 7.00.
